“Also recorded” adds a separate entry of the source.
Experiments:
5XFAD mice = experiment: Synaptic density, spine density and LTP in 5XFAD mice; format: in vivo, mouse
From the text: A. Representative electron microscopy of the synaptic structures. Arrows indicate the synapses. B. Quantitative analysis of the synaptic density in vehicle—and compound 11-treated 5XFAD mice. Data are shown as mean ±SEM (n=3 mice per group). * p <0.01. C. […] Scale bar, 5 μm. D. Quantitative analysis of the spine density. […] E. Long-term potentiation (LTP) of fEPSPs was induced by 3× TBS (4 pulses at 100 Hz, repeated 3 times with a 200-ms interval). Shown traces are representative fEPSPs recorded at the time point 1 and 2 (vehicle treated), 3 and 4 (compound 11-treated mouse). […] Data are presented as mean±SEM. *p<0.05 vs vehicle-treated mice. F. Synaptic transmission assessed by input/output (I/O) relation between stimuli intensity and fEPSP slope. I/O curves obtained in hippocampal slices prepared from vehicle- and compound 11-treated 5XFAD mice.
Synaptic dysfunction is the early feature of AD and is believed to be the basis of cognitive impairment. 5XFAD mice show decreased synaptic density compared to non-transgenic control mice. […] The density of dendritic spines along individual dendrites of pyramidal neurons was assessed by Golgi stain. […] Long-term potentiation (LTP) is a measure of synaptic plasticity that underlies learning and memory. 5XFAD mice have decreased LTP magnitude at Schaffer collateral-CA1 pathways.
Synaptic density was determined by electron microscopy as described previously (22). After deep anesthesia, mice were perfused transcardially with 2% glutaraldehyde and 3% paraformaldehyde in PBS. […]
Electrophysiological analysis was carried out as previously described (23). […] The field excitatory post-synaptic potentials (fEPSPs) were recorded in CA1 stratum radiatum by a glass microelectrode filled with a-CSF with resistance of 3-4 MEI The stimulation output (Master-8; AMPI, Jerusalem) was controlled by the trigger function of an EPC9 amplifier (HEKA Elektronik, Lambrecht, Germany). fEPSPs were recorded under current-clamp mode. […] The magnitudes of LTP are expressed as the mean percentage of baseline fEPSP initial slope. […]

Caspase-3 = experiment: OGD in primary neurons, Caspase activity; format: cell-based; conditions: 0.1 μM or 1.0 μM compound
Method: A. AEP activity, measured in primary neuronal cultures with 5 μM Cbz-Ala-Ala-Asn-AMC (x-axis denotes neurons were treated with 0.1 μM or 1.0 μM specified compound). B. Caspase activity, measured in primary neuronal cultures with 5 μM Ac-Asp-Glu-Val-Asp-AMC. C. Cathepsin activity, measured in primary neuronal cultures with 5 μM D-Val-Leu-Lys-AMC. D. Inhibition of APP cleavage. Lysates of primary cortical neurons pre-incubated with compounds for 30 min, underwent OGD for 4 hrs, were reperfused for 18 hrs (normoxia neurons remained at normoxic conditions). E. APP can be cleaved in a dose-dependent manner. Lysates of primary cortical neurons pre-incubated with compounds for 30 min, underwent OGD for 4 hrs, were reperfused for 18 hrs (normoxia neurons remained at normoxic conditions).
Depriving cells of oxygen and glucose is a cellular model that is employed to trigger acidosis in cultured cells. The efficacy of the compounds in a cellular model of oxygen-glucose deprivation (OGD) was determined in an effort to mimic the effects of stroke in primary cultured neurons. As a result of depriving neurons of oxygen and glucose-containing medium, AEP activity was doubled (FIG. 7A, ‘DMSO-Norm’ compared to ‘DMSO-OGD’), while Caspase-3 and Cathepsin activities remained relatively unchanged. […]

Cathepsin-L = Cathepsin-L (Homo sapiens, UniProt P07711); experiment: Cathepsin-L enzymatic assay (specificity); format: biochemical
Method: Purified recombinant enzyme was incubated with various concentrations of inhibitor in appropriate assay buffers in the presence of increasing concentrations of inhibitor. The formation of fluorescent product was monitored in duplicate reactions and the data was fit to appropriate equations to calculate the IC50 values.
To identify small-molecule inhibitors of AEP, a high-throughput screen was designed in conjunction with the Emory Chemical Biology Discovery Center. The screen incorporated mouse kidney lysates to assay a 54,384 compound library. […] Additional structural analysis and grouping allowed the compounds to be sorted into 8 distinct backbone families. […] The specificity of the compounds was also determined using four major cysteine proteases (FIG. 2).
Cathepsin-L—100 nM enzyme was pre-incubated with inhibitor in assay buffer (100 mM Sodium Acetate pH 5.5, 1 mM EDTA) for 10 min at 37° C. The reaction was initiated upon addition of 25 μM substrate (D-Val-Leu-Lys-AMC (Bachem)).

Chain of Cathepsin-L (P07711 114-333, species assumed): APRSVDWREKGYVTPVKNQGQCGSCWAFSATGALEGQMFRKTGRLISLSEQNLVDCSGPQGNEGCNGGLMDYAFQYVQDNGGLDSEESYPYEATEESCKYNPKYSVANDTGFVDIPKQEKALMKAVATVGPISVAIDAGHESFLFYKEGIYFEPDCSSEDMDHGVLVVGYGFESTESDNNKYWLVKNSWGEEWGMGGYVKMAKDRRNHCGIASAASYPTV

| SMILES | density of dendritic spines (Golgi stain) (5XFAD mice; 5XFAD mice) | density of synapse (electron microscopy) (5XFAD mice; CA1 area, 5XFAD mice) | long-term potentiation (LTP) magnitude (5XFAD mice; Schaffer collateral-CA1, 5XFAD mice) | Caspase-3 activity in OGD-treated neurons (Caspase-3) | selectivity for AEP over Cathepsin-L (Cathepsin-L) |
| --- | --- | --- | --- | --- | --- |
| Nc1ccc(N2CCOCC2)c2nonc12 [Compound 11] | increased; also recorded: reversed | notably increased | significantly reversed the LTP deficits; also recorded: enhanced | not observed | – |
| Sc1nnc(Nc2ccccc2)s1 [Compound BB1] | – | – | – | – | about 38 fold |
